Read-outs that look alike come from different tables or passages of the source.

For series [1] the following is noted: in vivo; cited from earlier work.
Series [2] is described as follows: Levodopa pharmacokinetics in Parkinson's Disease patients after single COMPOUND A 25, 50, 100 mg (Example 3c). The series is classed as in vivo, human (Parkinson's Disease patients). The following applies: for Cmax / AUC(0-t) / half-life / Tmax: human, in vivo, oral; for AUC(0-t): read-out: levodopa AUC0-6; for half-life: read-out: levodopa t1/2 (converted). The protocol:
This study was a three-center, double-blind, randomised, placebo-controlled, cross-over study to investigate the tolerability and effect a single administration of three dosages of COMPOUND A (25, 50 and 100 mg) on the levodopa pharmacokinetics, motor response, and erythrocyte soluble catechol-O-methyltransferase activity in 10 Parkinson's Disease patients concomitantly treated with levodopa/dopa-decarboxylase inhibitor.
Subjects were eligible if they presented: a diagnosis of PD according to the UK PDS Brain Bank diagnostic criteria; predictable signs of end-of-dose deterioration despite “optimal” levodopa/AADCi therapy; being treated with a stable regimen of 3 to 8 doses of standard release levodopa/AADCi 100/25 mg per day within at least 1 week prior to randomisation; modified Hoehn and Yahr stage of less than 5 in the off-state; and/or mean duration of OFF stage ≥1.5 h during waking hours. Concomitant anti-Parkinsonian medication (other than apomorphine, entacapone or tolcapone) was allowed in stable doses for at least 4 weeks prior to randomisation.
The study consisted of four consecutive treatment periods, corresponding to the 4 different treatment options (Compound A 25 mg, 50 mg, 100 mg or placebo). In each of the four treatment periods, subjects were to be admitted to the study site 2 days prior to receiving the administration of Compound A/Placebo (Day 1) and were to remain hospitalized (“in-patient”) until 48 h after receiving the administration of Compound A/Placebo. The washout period between administrations was to be at least 10 days. A follow-up visit was to occur approximately 2 weeks after the last treatment administration or early discontinuation. During each period, the COMPOUND A/Placebo capsules were to be co-administered with the morning dose of levodopa/carbidopa 100/25 mg (1 tablet of Sinemet® 25/100) or levodopa/benserazide 100/25 mg (1 tablet of Madopar®/Restex® 125) on Day 3.

[3] abbreviates: Day 2, 24 h before administration of Compound A, Group 1 (placebo group), Sinemet 25/100 or Madopar/Restex 125.
[4] abbreviates: Day 4, Group 1, 24 h after Placebo.
Where [5] appears, read: 25 mg, Day 2, 24 h before administration of Compound A, Group 2 (25 mg group).
The mark [6] stands for this setting: 50 mg, Day 2, 24 h before administration of Compound A, Group 3 (50 mg group).
[7] abbreviates: 100 mg, Day 2, 24 h before administration of Compound A, Group 4 (100 mg group).
The mark [8] stands for this setting: Day 3, Group 1, levodopa/AADCi with Placebo.

As to `Cc1ccc(C(=O)c2cc(O)c(O)c([N+](=O)[O-])c2)cc1` [Tolcapone, 3,4-dihydroxy-4′-methyl-5-nitrobenzophenone], the terminal half life result in series [1] is listed as “around 2 hours”.

Regarding `N[C@@H](Cc1ccc(O)c(O)c1)C(=O)O` [levodopa, reference compound], the levodopa tmax in series [2] (setting [3]) and in series [2] (setting [4]) was 0.5 h each time. The Cmax – broadly, the highest concentration seen after dosing – in series [2] (setting [5]) was 2240 ng/mL; in series [2] (setting [6]) it was 2090 ng/mL; in series [2] (setting [7]) it was 1880 ng/mL; in series [2] (setting [3]) it was 2510 ng/mL; in series [2] (setting [8]), 2100 ng/mL; in series [2] (setting [4]), 2130 ng/mL. The AUC(0-t) in series [2] (setting [5]) was found to be 4290 ng·h/mL; in series [2] (setting [6]) it was 3830 ng·h/mL; in series [2] (setting [7]), 4140 ng·h/mL; in series [2] (setting [3]) it was 4320 ng·h/mL; in series [2] (setting [8]), 3960 ng·h/mL; in series [2] (setting [4]), 3820 ng·h/mL. Further, the half-life in series [2] (setting [5]) is 1.63 h; in series [2] (setting [6]), 1.88 h; in series [2] (setting [7]), 1.78 h; in series [2] (setting [3]) it was 1.7 h; in series [2] (setting [8]), 1.6 h; in series [2] (setting [4]), 1.96 h. Further, the time to peak (Tmax) (usually the time from dosing to the highest level) came out at 0.5 h in series [2] (setting [8]); 0.5 h in series [2] (Day 2, 24 h before administration of Compound A, Group 2 (25 mg group)); 0.5 h in series [2] (Day 2, 24 h before administration of Compound A, Group 3 (50 mg group)); 1 h in series [2] (Day 2, 24 h before administration of Compound A, Group 4 (100 mg group)).

The values above are taken from patent US12129247B2, “Administration regime for nitrocatechols” (BIAL-PORTELA & CA, S.A., priority 2011, dated 2024).
